For experiment [1], the system named is Gastrointestinal stromal tumor (sarcoma) patient tumor cells. Put plainly: Alamar Blue anti-tumor screen, IC50 on patient tumor cells, tumor #6. The note with it: Homo sapiens, triplicate. It is filed as cell-based. From the text: (§1) Excess tissue specimens obtained from patients undergoing therapeutic surgical resections were freshly obtained at the time of surgery and a small portion of the specimen was sent for pathological testing. For diagnosis and grading of tissue samples (ie: prior to processing), hematoxylin and eosin stained tissue sections were examined by a pathologist. If the diagnosis and grading of the tissue concurred with the determination made by the surgical pathologist that provided the tissue, then the tissue was used in the screen. If there was no agreement, then two additional pathologists served as referees. If no consensus was reached, then the tissue was not used. […]
(§2) After tissue processing, the relative purity of the resulting cell suspension was determined by cytological examination after fixation and Papanicolaou staining. […]
(§3) Cell preparations that passed histological and cytological examination for diagnosis, grading, and cell purity were thawed at 37° C. and resuspended in tissue culture medium designed to maintain the cells during the incubation period. The live and dead cells were counted and the cells were diluted in culture medium to 1.0×10^3 live cells/test well for tumor cells and 3.3×10^3 live cells/test well for normal cells. […]
(§4) The kinetics of cellular re-dox reactions were subsequently measured at various times, for example at 3 hours, 3 days, and 5 days post-dye addition. […]
On the technique in general: Resazurin is reduced to fluorescent resorufin, in cell work by metabolically active cells.

In experiment [2] the test system is patient tumor cells. Put plainly: Anti-tumor screen 1 and 2 at 10 μM on patient tumor cells. The class given is cell-based, human. The note with it: for inhibition at 10 µM: Homo sapiens.
From the text: (§5) Excess tissue specimens obtained from patients undergoing therapeutic surgical resections were freshly obtained at the time of surgery and a small portion of the specimen was sent for pathological testing. For diagnosis and grading of tissue samples (ie: prior to processing), hematoxylin and eosin stained tissue sections were examined by a pathologist. If the diagnosis and grading of the tissue concurred with the determination made by the surgical pathologist that provided the tissue, then the tissue was used in the screen. If there was no agreement, then two additional pathologists served as referees. If no consensus was reached, then the tissue was not used.
(§6) The remaining tissue was used to prepare cell suspensions. The tissue was initially treated enzymatically via standard methods until only undigested material remained. The digested cell suspension was filtered through one or more screens of between 40 micron and 100 micron porosity. The resulting cell suspension was further purified via isokinetic density centrifugation.
(§7) Additional normal cells were removed from the cell suspension by negative immunoselection with a combination of monoclonal antibodies linked to magnetic beads (Dynal) that were used according to the manufacturers' instructions. The remaining cells were placed into appropriate medium, frozen down in 1.0 mL aliquots, and stored until use.
as §2, §3, §4

Experiment [3] concerns Fibrohistiocytic Sarcoma/lung patient tumor cells. In words: Alamar Blue anti-tumor screen, IC50 on patient tumor cells, tumor #2. It is filed as cell-based. The note with it: Homo sapiens, triplicate.
From the text: as §1, §2, §3, §4

Experiment [4] has as its system Leiomyosarcoma/pelvic patient tumor cells. Put plainly: Alamar Blue anti-tumor screen, IC50 on patient tumor cells, tumor #4. It is filed as cell-based, human.
From the text: as §5, §6, §7
After tissue processing, the relative purity of the resulting cell suspension was determined by cytological examination after fixation and Papanicolaou staining. Only those cell preparations greater than 80% tumor cells were used for testing of candidate compounds. If there was any doubt about the percentage of tumor cells in the cell preparation, additional pathologists served as referees to make a determination.
Cell preparations that passed histological and cytological examination for diagnosis, grading, and cell purity were thawed at 37° C. and resuspended in tissue culture medium designed to maintain the cells during the incubation period. The live and dead cells were counted and the cells were diluted in culture medium to 1.0×10^3 live cells/test well for tumor cells and 3.3×10^3 live cells/test well for normal cells.
The cells were added to microtiter plates and incubated at 37° C. overnight with 10 μM of the candidate compounds that were added at 1/10th the volume of the cell suspension. Alamar Blue (Accumed International, Westlake Ohio) was then added to the cells at 1/10 the volume of the well, and the cells were further incubated at 37° C. for various times. Alamar Blue dye measures cellular re-dox reactions (ie: cellular respiration) whereby a spectral shift occurs upon reduction of the dye. (Excitation 530 nm; emission 590 nm).
The kinetics of cellular re-dox reactions were subsequently measured at various times, for example at 3 hours, 3 days, and 5 days post-dye addition. These measurements, in comparison with control cells (untreated with compound) and media controls (test wells without cells) provide the percent inhibition of cellular mitochondrial respiration as a result of candidate compound treatment, as well as IC50 determinations.
In a blinded fashion, approximately 10,000 compounds were tested at a rate of 1,000-4,000 compounds per run set against various tumor types. The anti-tumor screen utilized was composed of three tiers as follows. In screen 1, patient tumor cells were tested in singles, with candidate compounds at a concentration of 10 μM. […]

For experiment [5], the system named is Myxofibrosarcoma/thigh patient tumor cells. Put plainly: Alamar Blue anti-tumor screen, IC50 on patient tumor cells, tumor #3. It is filed as cell-based. The note with it: Homo sapiens, triplicate.
From the text: as §1, §2, §3, §4

Experiment [6] concerns Ovarian patient tumor cells. Put plainly: Alamar Blue anti-tumor screen, IC50 on patient tumor cells, tumor #7. It is filed as cell-based. Particulars: Homo sapiens, triplicate.
From the text: as §1, §2, §3, §4

The test system of experiment [7] is Gastrointestinal stromal tumor (sarcoma) patient tumor cells. Put plainly: Alamar Blue anti-tumor screen, IC50 on patient tumor cells, tumor #5. It is filed as cell-based. Particulars: Homo sapiens, triplicate.
From the text: as §1, §2, §3, §4

Experiment [8] deals with patient normal cells. Put plainly: Anti-tumor screen 2 at 10 μM on patient normal cells. It is filed as cell-based. The note with it: Homo sapiens, screen 2, 10 μM, in duplicate.
From the text: as §1, §2, §3, §4

Experiment [9] has as its system Leiomyosarcoma/abdominal patient tumor cells. Put plainly: Alamar Blue anti-tumor screen, IC50 on patient tumor cells, tumor #1. It is filed as cell-based, human. Particulars: triplicate.
From the text: as §1, §2, §3, §4

The structures appear in SMILES notation. Where two headings read alike, the source gives them in different places.

As usually defined, the IC50 is the point on the concentration scale where inhibition reaches its midpoint. The term inhibition denotes the share of the control response that was lost under treatment. As for `O=C(Nc1ccc(Cl)cc1)c1cc(Cl)ccc1NS(=O)(=O)c1ccc(Cl)cc1` [Compound 1, 5-chloro-2-{[(4-chlorophenyl)sulfonyl]amino}-N-(4-chlorophenyl)benzamide], the IC50 stood at 531 nM in [1]; 30 nM in experiment [3]; 339 nM in experiment [4] (Homo sapiens, Tumor #4, Leiomyosarcoma/pelvic, patient tumor cells, triplicate (Table 2), read-out: IC50); 410 nM in [4] (Tumor #4, Leiomyosarcoma/pelvic, patient tumor cells, triplicate (Table 2), read-out: IC50); 49 nM in [5]; 35 nM in experiment [6]. Also, the IC50 in experiment [7] came to 2400 nM; in experiment [9] (Homo sapiens), 170 nM; in [9], 150 nM. For the same compound, the inhibition at 10 µM in experiment [2] (screen 1, 10 μM, patient tumor cells, criterion: at least 80% inhibition and/or two standard deviations from the mean of the plate samples, read-out: inhibition (compared to cell and media controls)) is not below 80%; in experiment [2] (screen 2, 10 μM, in duplicate, patient tumors, read-out: inhibition on tumor cells), not below 80%; in experiment [8] it was not above 20%. In experiment [2] (three-tier anti-tumor screen, tumor versus normal patient cells, 10 μM), the “selectivity against tumor cells” value was “selectivity against tumor cells”.

As for `O=C(Nc1ccc(Cl)cc1)c1cc(Br)ccc1NS(=O)(=O)c1ccc(Cl)cc1` [Compound 2, 5-bromo-2-{[(4-chlorophenyl)sulfonyl]amino}-N-(4-chlorophenyl)-benzamide], the IC50 in experiment [4] (Homo sapiens) came out at 44.7 nM.

As to `O=C(Nc1ccc(Cl)cc1)c1cc(Br)ccc1NS(=O)(=O)c1ccc(Cl)c([N+](=O)[O-])c1` [Compound 3, (5-bromo-2-{[(4-chloro-3-nitrophenyl)sulfonyl]amino}phenyl)-N-(4-chlorophenyl)carboxamide], the IC50 in experiment [4] (Homo sapiens) came to 118 nM.

Consider `O=C(Nc1ccc(Cl)cc1)c1cc2ccccc2cc1NS(=O)(=O)c1ccc(Cl)cc1` [Compound 5, N-(4-chlorophenyl)(3-{[(4-chlorophenyl)sulfonyl]amino}(2-naphthyl))-carboxamide], for which the IC50 in experiment [4] (Homo sapiens, Tumor #4 of Table 2, Leiomyosarcoma/pelvic, tested as in Example 3 (Table 3), read-out: IC50) came to 209 nM.

The record behind these values is patent US6716879B2, “Methods for anti-tumor therapy” (Compass Pharmaceuticals, LLC, priority 2000, dated 2004).
